Test results reported in the supplement of paper PMC10307832.

Legend:
Experiment in all cases: relative viability (nuclei count vs DMSO), 5 days (fraction); higher = more cells survive
IMD-0354 + Olaparib = compound: O=C(Nc1cc(C(F)(F)F)cc(C(F)(F)F)c1)c1cc(Cl)ccc1O [IMD-0354] + O=C(c1cc(Cc2n[nH]c(=O)c3ccccc23)ccc1F)N1CCN(C(=O)C2CC2)CC1 [Olaparib] (partner 8 µM)
How it was run: (§1)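 Each reported value is a median over duplicate plates. It expresses relative viability: treated-well nuclei count divided by vehicle-well nuclei count. Lung cancer cell lines in 1536-well plates were dosed by pin tool a day after seeding, alone with one drug or with a fixed anchor-drug dose plus five library-drug doses (not always all listed) in √10 steps, and nuclei were counted after 5 days.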

CX-5461 + Dasatinib = compound: Cc1cnc(CNC(=O)c2c(=O)c3ccc(N4CCCN(C)CC4)nc3n3c2sc2ccccc23)cn1 [CX-5461] + Cc1nc(Nc2ncc(C(=O)Nc3c(C)cccc3Cl)s2)cc(N2CCN(CCO)CC2)n1 [Dasatinib] (partner 0.075 µM)
How it was run: as §1

CX-5461 + Lapatinib = compound: Cc1cnc(CNC(=O)c2c(=O)c3ccc(N4CCCN(C)CC4)nc3n3c2sc2ccccc23)cn1 [CX-5461] + CS(=O)(=O)CCNCc1ccc(-c2ccc3ncnc(Nc4ccc(OCc5cccc(F)c5)c(Cl)c4)c3c2)o1 [Lapatinib] (partner 2 µM)
How it was run: as §1

IMD-0354 + Crizotinib = compound: O=C(Nc1cc(C(F)(F)F)cc(C(F)(F)F)c1)c1cc(Cl)ccc1O [IMD-0354] + C[C@@H](Oc1cc(-c2cnn(C3CCNCC3)c2)cnc1N)c1c(Cl)ccc(F)c1Cl [Crizotinib] (partner 1 µM)
How it was run: as §1

Row | Cell Line | relative viability (IMD-0354 + Olaparib; first compound 0.04 µM) | relative viability (IMD-0354 + Olaparib; first compound 0.1265 µM) | relative viability (IMD-0354 + Olaparib; first compound 0.4 µM) | relative viability (IMD-0354 + Olaparib; first compound 1.265 µM) | relative viability (IMD-0354 + Olaparib; first compound 4 µM) | relative viability (CX-5461 + Dasatinib; first compound 0.01 µM) | relative viability (CX-5461 + Dasatinib; first compound 0.03162 µM) | relative viability (CX-5461 + Dasatinib; first compound 0.3162 µM) | relative viability (CX-5461 + Dasatinib; first compound 1 µM) | relative viability (CX-5461 + Lapatinib; first compound 0.03162 µM) | relative viability (CX-5461 + Lapatinib; first compound 0.3162 µM) | relative viability (CX-5461 + Lapatinib; first compound 1 µM) | relative viability (IMD-0354 + Crizotinib; first compound 0.04 µM) | relative viability (IMD-0354 + Crizotinib; first compound 0.1265 µM) | relative viability (IMD-0354 + Crizotinib; first compound 0.4 µM) | relative viability (IMD-0354 + Crizotinib; first compound 1.265 µM) | relative viability (IMD-0354 + Crizotinib; first compound 4 µM) | relative viability (CX-5461 + Dasatinib; first compound 0.1 µM) | relative viability (CX-5461 + Lapatinib; first compound 0.01 µM) | relative viability (CX-5461 + Lapatinib; first compound 0.1 µM)
1 | NCI-H1651 | 0.189 | 0.196 | 0.177 | 0.177 | 0.124 | 0.378 | 0.254 | 0.178 | 0.112 | 0.482 | 0.714 | 0.117 | 0.765 | 0.87 | 0.575 | 0.609 | 0.128 |  |  | 
2 | NCI-H1666 | 0.752 | 0.748 | 0.857 | 0.703 | 0.562 | 0.786 | 0.802 | 0.757 | 0.591 | 0.637 | 0.55 | 0.398 | 0.867 | 1.02 | 0.94 | 0.251 | 0.151 | 0.597 | 0.733 | 
3 | NCI-H1734 | 0.608 | 0.68 | 0.465 | 0.421 | 0.175 | 0.472 | 0.543 | 0.405 | 0.25 | 1.12 | 0.553 | 0.523 | 0.803 | 0.685 | 0.4 | 0.422 | 0.244 | 0.471 | 1.08 | 0.951
4 | NCI-H1755 | 0.782 | 0.907 | 0.707 | 0.585 | 0.23 | 0.412 | 0.476 | 0.422 | 0.34 | 1.03 | 0.531 | 0.972 | 0.925 | 0.965 | 0.46 | 0.31 | 0.17 | 0.461 | 1.05 | 1.06
5 | NCI-H1792 | 0.393 | 0.389 | 0.236 | 0.21 | 0.172 | 0.738 | 0.893 | 0.95 | 0.613 | 1.08 | 0.85 | 0.788 | 1.14 | 0.959 | 0.696 | 0.512 | 0.391 | 0.825 | 0.919 | 0.923
6 | NCI-H1915 | 0.264 | 0.263 | 0.235 | 0.175 | 0.136 | 0.292 | 0.358 | 0.299 | 0.297 | 1.06 | 0.379 | 1.04 | 0.787 | 0.906 | 0.527 | 0.434 | 0.194 | 0.301 | 1.01 | 0.99
7 | NCI-H1944 | 0.377 | 0.331 | 0.3 | 0.302 | 0.191 | 0.208 | 0.204 | 0.14 | 0.11 | 0.981 |  | 0.655 | 0.947 | 1.07 |  | 1.04 | 0.157 | 0.168 | 0.777 | 0.806
8 | NCI-H1975 | 1.07 | 0.912 | 0.437 | 0.191 | 0.18 | 0.367 | 0.388 | 0.441 | 0.2 | 0.921 | 0.927 | 0.386 | 1.15 | 0.959 | 0.546 | 0.211 | 0.192 | 0.302 | 1.14 | 0.855
9 | NCI-H1993 | 0.917 | 0.982 | 0.819 | 0.651 | 0.541 | 0.657 | 0.588 | 0.621 | 0.473 | 0.84 | 0.802 | 0.762 | 0.907 | 0.824 | 0.658 | 0.508 | 0.557 | 0.499 | 0.769 | 0.881
10 | NCI-H2009 | 0.625 | 0.694 | 0.591 | 0.366 | 0.115 | 0.341 | 0.324 | 0.346 | 0.262 | 1.04 | 0.39 | 0.466 | 1.1 | 0.981 | 0.698 | 0.165 | 0.111 | 0.305 | 0.906 | 0.584
11 | NCI-H2023 | 0.504 | 0.427 | 0.315 | 0.0756 | 0.183 | 0.667 | 0.603 | 0.497 | 0.0768 | 0.794 | 0.143 | 0.106 | 0.671 | 0.618 | 0.432 | 0.172 | 0.0868 | 0.245 | 0.788 | 
12 | NCI-H2085 | 0.785 | 0.795 | 0.713 | 0.412 | 0.377 | 0.237 | 0.228 | 0.229 | 0.252 | 0.718 | 0.324 | 0.615 | 0.613 | 0.753 | 0.788 | 0.511 | 0.315 | 0.257 | 0.806 | 0.667
13 | NCI-H2087 | 0.517 | 0.457 | 0.207 | 0.0984 | 0.122 | 0.938 | 0.903 | 0.793 | 0.554 | 1.18 | 0.407 | 0.507 | 0.822 | 0.827 | 0.265 | 0.156 | 0.152 | 0.736 | 1.13 | 1.18
14 | NCI-H2126 | 1 | 0.908 | 0.68 | 0.512 | 0.364 | 0.54 | 0.568 | 0.672 | 0.413 | 0.803 | 0.622 | 0.72 | 1.03 | 0.997 | 0.878 | 0.6 | 0.322 | 0.562 | 0.786 | 0.727
15 | NCI-H2170 | 0.531 | 0.647 | 0.421 | 0.561 | 0.185 | 0.602 | 0.552 | 0.619 | 0.436 | 0.261 | 0.207 | 0.296 | 1.3 | 1.39 | 0.574 | 1.2 | 0.33 | 0.701 | 0.305 | 0.283
16 | NCI-H2228 | 0.888 | 0.586 | 0.482 | 0.274 | 0.172 | 0.399 | 0.465 | 0.309 | 0.0755 | 0.764 | 0.668 | 0.166 | 0.389 | 0.442 | 0.405 | 0.179 | 0.22 | 0.28 | 1.13 | 0.473
